Results from patent publication US9708372B2, “Agonistic autoantibodies to the alpha1-adrenergic receptor and the beta2-adrenergic receptor in Alzheimer's and vascular dementia” (E.R.D.E.-AAK-DIAGNOSTIK GMBH, priority 2011, dated 2017).
Read-outs that look alike come from different tables or passages of the source.

Key:
[1] = system: spontaneously contracting neonatal cardiomyocytes; assay: Cardiomyocyte contraction bioassay: chronotropic response to patient IgG after preincubation with receptor loop peptides; type: cell-based, rat; conditions: IgG from three AD/vascular dementia patients preincubated 1 hour at 4° C. with 1 μg peptide per 1 μg IgG protein
Description: Cultures of neonatal cardiomyocytes were prepared from new-born, one to three days old rats essentially as described in [15]. Chinese hamster ovary cells stably transfected with the A-isoform of the human α1-AR (CHO-α1) were grown in F12 HAM medium supplemented with glutamine, 10% FCS and 1% penicillin streptomycin at 37° C. and 5% CO2.
Functional autoantibodies were detected utilizing the chronotropic responses of cultivated spontaneously contracting neonatal cardiomyocytes. For monitoring the contraction rate of neonatal cardiomyocytes a standardized bioassay based on computer-assisted recording of the contraction rate was employed.
Immunoglobulin (IgG) fractions from serum samples were prepared according to a standard procedure as described in [6]. Patients IgG were added to cultures of neonatal cardiomyocytes to a final dilution of 1:40. After incubation at 37° C. for 60 minutes, the pulsation rate was measured. A total of up to 30 cells or cell clusters for each sample of a given immunoglobulin fraction was analysed. The chronotropic response to the exposition to patient IgG compared to preceding control recordings is given as increases in the number of contractions per minute. Identification of the target GPCR type was performed using specific receptor antagonists, 10^-7 M prazosin to block the α1-AR and 10^-7 M ICI […] for the β2-AR.
For mapping of the target site of agonistic autoantibodies on the receptor, IgG fractions were preincubated for 1 hour at 4° C. with an excess of synthetic peptides corresponding to amino acid sequences of the extracellular loop1 (LGYWAFGRVFCN) or the extracellular loop2 (PAPEDETICQINEE) of the human α1-AR (1 μg peptide per 1 μg IgG protein).

[2] = molecular target: patient IgG (agAAB to the α1-AR); assay: ELISA competition of patient IgG binding to the immobilized peptide by free α1-AR loop1 peptide; parameters: species or system human; conditions: free peptide 0.3 nM up to 5 μM, patient IgG preincubated with free peptide 15 minutes, nonlinear regression, read-out: EC50 value, competition of IgG binding to the immobilized peptide by soluble α1-AR loop 1 peptide
Description: Shown are data from representative experiments run in triplicates. Values are corrected for unspecific binding. A: Dependence of antibody binding on patient IgG protein. The given amount of IgG protein refers to 100 μl reaction volume (□) binding in the presence of 0.15 M NaCl; (●) binding in the presence of 0.5 M NaCl. B: Time-dependence of antibody binding. C: Competition of binding by increasing concentrations of the free α1-AR loop1 peptide. Concentrations of the free peptide ranged from 0.3 nM to 5.0 μM. The patient IgG was preincubated with the free peptide in solution for 15 minutes.
The binding of agonistic IgG preparations was characterized using standard ELISA techniques. Briefly, biotinylated peptides corresponding to either the first or the second extracellular loop of the human α1A-AR were coupled to pre-blocked streptavidin-coated 96-well plates (Pierce). All experimental steps were performed at room temperature. If not indicated otherwise, 5 μg of IgG protein was used and the incubation time was 30 minutes. As secondary antibody anti-human horseradish conjugated anti-IgG was used. The antibody binding was visualized by the 1-Step Ultra TMB ELISA (Thermo Scientific). The optical density was quantified at 450 nm using a SLT Spectra multiplate reader (TECAN).

[3] = molecular target: T1, A-isoform of the human α1-AR (CHO-α1) (Homo sapiens, UniProt P35348); assay: Intracellular calcium (Cai) mobilization in CHO-α1 cells; type: cell-based
T1 construct: expressed in transfected cells; host or cells: CHO (Chinese hamster ovary) cells, stably transfected
T1 sequence (P35348 1-466): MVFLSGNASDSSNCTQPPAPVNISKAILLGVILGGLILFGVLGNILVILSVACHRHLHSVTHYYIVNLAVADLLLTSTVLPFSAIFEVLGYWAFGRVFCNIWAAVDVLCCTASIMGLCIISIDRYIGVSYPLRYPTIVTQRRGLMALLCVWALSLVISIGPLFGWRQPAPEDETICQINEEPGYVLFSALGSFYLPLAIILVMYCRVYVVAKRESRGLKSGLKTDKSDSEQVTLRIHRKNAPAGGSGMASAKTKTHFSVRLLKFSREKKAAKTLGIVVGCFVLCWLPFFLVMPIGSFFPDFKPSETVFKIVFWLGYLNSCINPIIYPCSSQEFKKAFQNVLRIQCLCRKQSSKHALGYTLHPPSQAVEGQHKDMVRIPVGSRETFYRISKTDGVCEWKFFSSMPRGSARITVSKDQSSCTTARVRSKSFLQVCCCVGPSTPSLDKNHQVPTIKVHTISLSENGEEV
Description: The data represent mean values of independent measurements of three individual cell populations. A: Time dependence of Cai mobilization by patient IgG compared to the α1-AR agonist phenylephrine (PE). The addition of patient IgG preparation and PE is indicated by the arrow. The additions were (▴) 2.5 μg patient IgG; (▪) 5 μg patient IgG; (●) 5 μM PE. B: Effect of 5 μg human control IgG (Δ) and 5 μg patient IgG (♦) on Cai mobilization. The addition of IgG preparations is indicated by the arrow. C: Inhibitory effect of preincubation of patient IgG with the free α1-AR loop1 peptide. Patient IgG was preincubated with 0.25 μM peptide for 15 minutes before addition to the cells. Peak values (five of each individual measurement) were taken for assessing the decrement in Cai mobilization. […]
The potential of patients IgG fractions to mobilise intracellular calcium (Cai) was assessed using Chinese hamster ovary cells stably transfected with the A-isoform of the human α1-AR (CHO-α1). The cells were trypsinized and plated on black clear bottom 96-well plates suited for fluorescence measurements (Greiner) at a density of 30 000 cells per well. […] Cai was measured on a Perkin Elmer Victor X2 fluorescence multiplate reader equipped with an injector unit. The cells were excited at wave lengths alternating between 340 nm and 380 nm and the fluorescence signal emitted at 510 nm was recorded. […]

Effect of peptide preincubation on chronotropic response to patient IgG [1]	Effect of peptide preincubation on chronotropic response to patient IgG ([1]; listed as L1 peptide)	EC50 ([2]; listed as extracellular loop1 peptide) [nM]	EC50 ([2]; listed as α1-AR loop 1 peptide) [nM]	Effect of the peptide itself on Cai ([3]; CHO-α1 cells, peptide alone)	Effect of peptide preincubation on elevation of Cai by patient IgG ([3]; patient IgG preincubated with 0.25 μM peptide for 15 minutes, p<0.01)	Sequence
nearly abolished	abolished	30	~30	no effect	reduced significantly	LGYWAFGRVFCN [loop1 peptide, synthetic peptide corresponding to extracellular loop1 of the human α1-AR]
did not affect	–	–	–	–	–	PAPEDETICQINEE (listed as Homo sapiens) [loop2 peptide, synthetic peptide corresponding to extracellular loop2 of the human α1-AR]
